Experimental data reported in patent publication US6602870B2, “Oral dosage form for administration of the combination of tegafur, uracil, folinic acid, and oxaliplatin and method of using the same” (Bristol-Myers Squibb Company, priority 2000, dated 2003).
Values joined by “and” are separate entries in the source; they are usually repeats but may differ in a detail not shown here. Identical values can stand only once.

How the values were obtained:
[1] = tested on: human HT29 colorectal tumor cell xenografts; test: Growth inhibition study in nude mice transplanted with human HT29 colorectal tumor cell xenografts; type: in vivo
Experimental: Growth inhibition studies were performed using nude mice transplanted with human HT29 colorectal tumor cell xenografts and 1) not treated (control group), or treated 2) with oral UFT (20 mg/kg/day) and calcium folinate (4 mg/kg/day) for 28 days; 3) intraperitonealy with oxaliplatin (10 mg/kg at day 1), or 4) with a combination of oxaliplatin with UFT and calcium folinate. Tumor measurements were performed twice a week, and animals were sacrificed at day 28. The tumors were excised and weighed. Two separate experiments were performed, for a total number of 25 animals in each group.
Human colorectal cancer HT29 cells, obtained from Dr. J. Fogh (Sloan Kettering Institute for Cancer Research, N.Y.), were cultured in DMEM (Dulbeccos modified Eagle's medium, Eurobio, Paris, France), supplemented with 10% heat-decomplemented fetal bovine serum (Boehringer, Manheim, Germany), 100 U/ml penicillin, 100 μg/ml streptomycin and […] glutamine. Cells were grown at 37° C. in a humidified atmosphere containing 5% CO2. The medium was renewed every 2 days, and the cells were passaged twice a week by trypsin/EDTA to maintain the cells in exponential growth.
Female BALB/c nude (nu+/nu+) aged 6 weeks were maintained in pathogen free state. Human HT29 colorectal xenograft (1×10^6 cells) was transplanted sub-cutaneously into the hind limb of each animal. Treatment was initiated 14 days later when the tumor became easily palpable and measurable (mean size of tumor surface=33 mm^2).
Oxaliplatin was administered intraperitoneally at a dose of 10 mg/kg day 1. […]
Two axes (mm) of tumor (the longest axis and the axis perpendicular to the longest axis) were measured with a caliper. Tumor measurements and body weights were recorded twice a week. […] Toxicity was evaluated in terms of body weight ratio (Wn/Wo) and mortality; Wn is the body weight measured n days after the initial administration, while Wo is the body weight at the start of administration. […] Results are expressed as mean weight (grams)±standard deviation. […]

[2] = Toxicity (body weight ratio, mortality) in HT29 xenograft nude mice; type: in vivo; settings: day 28 before sacrifice; 25 animals per group
Experimental: Tumor measurements and body weights were recorded twice a week. […] For each experiment, the same observer made all measurements to minimize variations. Toxicity was evaluated in terms of body weight ratio (Wn/Wo) and mortality; Wn is the body weight measured n days after the initial administration, while Wo is the body weight at the start of administration. […] Two consecutive experiments gave similar data, and results represent the average of all data for a total of 25 animals per group. The means of each of the four groups were compared using the one-way analysis of variance. The Barlett's test was used for homogeneity of variances and the Tukey-Kramer multiple comparison test for inter-group comparison. Data analysis was performed using an IBM PC. Statistical analysis and graphs were performed using Instat and Prism software (GraphPad, San Diego, Calif.).
Body weight was evaluated in terms of the ratio of body weight measured n days after treatment (Wn) as compared to the body weight at the start of treatment (Wo). All animals (25 per group) were weighed twice a week.

Structure (SMILES): O=C1[O][Pt]2([NH][C@@H]3CCCC[C@H]3[NH]2)[O]C1=O [oxaliplatin, [(1R, 2R)-1,2-cyclohexanediamine-N,N′][oxalato(2-)-O, O′]platinum]
- Decrease of tumor size (tumor growth inhibition) as compared to control ([1]; day 28, FIG. 1): 24%
- Tumor weight decrease as compared to control ([1]; day 28, same doses): 29.9% and 30%
- Mean tumor weight ([1]; tumors excised 28 days after treatment initiation, 25 animals per group, UFT 20 mg/kg/day + calcium folinate 4 mg/kg/day oral day 1-28, oxaliplatin 10 mg/kg i.p. day 1): 2.03 ± 0.14 g
- Body Weight Ratio (Wn/Wo) [2]: 1.05 ± 0.09
